Data from US7282348B2, “Kit for measuring cytotoxicity of a test agent” (Promega Corporation, priority 2002, dated 2007).

Test system: L929 cells
Assay: Cytotoxicity of TNFα measured by LDH release (resazurin/diaphorase fluorescence)
Assay type: cell-based, mouse
Conditions: 20 hours incubation, in the presence of actinomycin D 1 μg/ml
Experimental: A reagent solution was prepared combining a lyophilized substrate mixture with the assay buffer containing resazurin, and all of the ingredients required to measure the release of LDH from dead cells. The buffer solvent used to reconstitute the lyophilized substrate mixture was designed so that when it is used to reconstitute the mixture, the resulting solution has an osmolarity that is compatible with living cells. That is, the resulting solution was isotonic with the cells. When used to reconstitute the lyophilized substrate mix, the reagent solution contained:
L929 cells were cultured in F-12/DME with 10% FBS and serially-diluted in a microtiter plate to yield duplicate wells containing approximately 0, 1562, 3125, 6250, 12,500, 25,000, and 50,000 cells per well, in 90 μl total volume. Cells were incubated at 37° C. for sufficient time to allow attachment (about 1.5 hours). […] The fluorescence of each well was then measured (excitation 560 nm, emission 590 nm).
L929 cells (2000 cells/well) were prepared using a 384-well tissue culture plate in F-12/DME medium supplemented with 10% horse serum. […] Fluorescence was then determined at 560 nm excitation and 590 nm emission.

Substance: TNFα
- concentration at or above which fluorescence remained essentially constant (all of the cells lysed): about 0.125 ng/ml
- observed fluorescence (560 nm excitation, 590 nm emission) as a measure of cell lysis (TNF concentrations from zero to about 0.125 ng/ml): rose in a TNFα dose-dependent fashion
